Test results reported in patent publication US6414154B1, “Tetraisoquinoline derivatives as modulators of dopamine D3 receptors” (SmithKline Beecham p.l.c., priority 1998, dated 2002).

Molecular target: T1, human D3 dopamine receptors (Homo sapiens, UniProt P35462)
T1 construct: expressed in transfected cells; host or cells: CHO cells (crude cell membranes)
Assay: displacement of [125I] iodosulpride binding to cloned human D3 dopamine receptors expressed in CHO cells
Conditions: 0.1 nM [125I] iodosulpride, CHO cell membranes, 30 min at 37° C.; read-out: pKi at the D3 receptor (converted)
Protocol: The inhibition constants (Ki) of test compounds for displacement of [^125I] iodosulpride binding to human D3 dopamine receptors expressed in CHO cells were determined as follows. […] Cultures were grown as monolayers or in suspension in standard cell culture media. Cells were recovered by scraping (from monolayers) or by centrifugation (from suspension cultures), and were washed two or three times by suspension in phosphate buffered saline followed by collection by centrifugation. Cell pellets were stored frozen at −40° C. Crude cell membranes were prepared by homogenisation followed by high-speed centrifugation, and characterisation of cloned receptors achieved by radioligand binding.
Cell pellets were gently thawed at room temperature, and resuspended in about 20 volumes of ice-cold 50 mM Tris salts (pH 7.4@37° C.), 20 mM EDTA, 0.2 M sucrose. The suspension was homogenised using an Ultra-Turrax at full speed for 15 sec. The homogenate was centrifuged at 18,000 r.p.m for 20 min at 4° C. in a Sorvall RC5C centrifuge. The membrane pellet was resuspended in ice-cold 50 mM Tris salts (pH 7.4@37° C.), using an Ultra-Turrax, and recentrifuged at 18,000 r.p.m for 15 min at 4° C. in a Sorvall RC5C. The membranes were washed two more times with ice-cold 50 mM Tris salts (pH 7.4@37° C.). The final pellet was resuspended in 50 mM Tris salts (pH 7.4@37° C.), and the protein content determined using bovine serum albumin as a standard (Bradford, M. M. (1976) Anal. Biochem. 72, 248-254).
Crude cell membranes were incubated with 0.1 nM [^125I] iodosulpride (˜2000 Ci/mmol; Amersham, U. K.), and the test compound in a buffer containing 50 mM Tris salts (pH 7.4@37° C.), 120 mM NaCl, 5 mM KCl, 2 mM CaCl2, 1 mM MgCl2, 0.1% (w/v) bovine serum albumin, in a total volume of 1 ml for 30 min at 37° C. Following incubation, samples were filtered using a Brandel Cell Harvester, and washed three times with ice-cold 50 mM Tris salts (pH 7.4@37° C.), 120 mM NaCl, 5 mM KCl, 2 mM CaCl2, 1 mM MgCl2. The radioactivity on the filters was measured using a Cobra gamma counter (Canberra Packard). Non-specific binding was defined as the radioligand binding remaining after incubation in the presence of 100 μM iodosulpride. For competition curves, 14 concentrations (half-log dilutions) of competing cold drug were used. Competition curves were analysed simultaneously whenever possible using non-linear least-squares fitting procedures, capable of fitting one, two or three site models.

T1 sequence (P35462 whole entry): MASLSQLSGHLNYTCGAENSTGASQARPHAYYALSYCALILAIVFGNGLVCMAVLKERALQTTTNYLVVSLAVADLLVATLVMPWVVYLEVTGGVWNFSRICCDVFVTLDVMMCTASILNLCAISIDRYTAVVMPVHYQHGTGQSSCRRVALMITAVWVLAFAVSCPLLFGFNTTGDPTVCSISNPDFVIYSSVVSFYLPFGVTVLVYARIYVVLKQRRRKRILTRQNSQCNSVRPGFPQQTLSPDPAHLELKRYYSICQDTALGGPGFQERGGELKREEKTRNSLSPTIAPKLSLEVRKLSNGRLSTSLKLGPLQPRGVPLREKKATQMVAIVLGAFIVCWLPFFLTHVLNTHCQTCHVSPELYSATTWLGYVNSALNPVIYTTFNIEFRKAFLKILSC

SMILES | Ki [nM]
N#Cc1ccc2c(c1)CCN(CC[C@H]1CC[C@H](NC(=O)Cc3ccc4ccccc4c3)CC1)C2 [Example 2, trans-6-Cyano-2-(2-(1-(4-(2-naphthyl)acetamido)cyclohexyl)ethyl)-1,2,3,4-tetrahydroisoquinoline] | 3.16 to 12.6
N#Cc1ccc2c(c1)CCN(CC[C@H]1CC[C@H](NC(=O)Cc3ccccc3F)CC1)C2 [Example 3, trans-6-Cyano-2-(2-(1-(4-(2-fluorophenyl)acetamido)cyclohexyl)ethyl)-1,2,3,4-tetrahydroisoquinoline] | 3.16 to 12.6
N#Cc1cccc(CC(=O)N[C@H]2CC[C@H](CCN3CCc4cc(C#N)ccc4C3)CC2)c1 [Example 6, trans-6-Cyano-2-(2-(1-(4-(3-cyanophenyl)acetamido)cyclohexyl)ethyl)-1,2,3,4-tetrahydroisoquinoline] | 3.16 to 12.6
N#Cc1ccc2c(c1)CCN(CC[C@H]1CC[C@H](NC(=O)CCc3ccccc3)CC1)C2 [Example 8, trans-6-Cyano-2-(2-(1-(4-(3-phenyl)propionamido)cyclohexyl)ethyl)-1,2,3,4-tetrahydroisoquinoline] | 3.16 to 12.6
N#Cc1ccc2c(c1)CCN(CC[C@H]1CC[C@H](NC(=O)Cc3ccc(-c4ccccc4)cc3)CC1)C2 [Example 9, trans-6-Cyano-2-(^2-(1-(4-(4-phenyl)phenylacetamido)cyclohexyl)-ethyl)-1,2,3,4-tetrahydroisoquinoline] | 3.16 to 12.6
N#Cc1ccc2c(c1)CCN(CC[C@H]1CC[C@H](NC(=O)Cc3ccsc3)CC1)C2 [Example 11, trans-6-Cyano-2-(2-(1-(4-(3-thienyl)acetamido)cyclohexyl)ethyl)-1,2,3,4-tetrahydroisoquinoline] | 3.16 to 12.6
N#Cc1ccc2c(c1)CCN(CC[C@H]1CC[C@H](NC(=O)Cc3c[nH]c4ccccc34)CC1)C2 [Example 12, trans-6-Cyano-2-(2-(1-(4-(3-indolyl)acetamido)cyclohexyl)ethyl)-1,2,3,4-tetrahydroisoquinoline] | 3.16 to 12.6
N#Cc1ccc2c(c1)CCN(CC[C@H]1CC[C@H](NC(=O)Cc3ccccn3)CC1)C2 [Example 15, trans-6-Cyano-2-(2-(1-(4-(2-pyridyl)acetamido)cyclohexyl)ethyl)-1,2,3,4-tetrahydroisoquinoline] | 3.16 to 12.6
N#Cc1ccc2c(c1)CCN(CC[C@H]1CC[C@H](NC(=O)Cc3cccc(Br)c3)CC1)C2 [Example 18, trans-6-Cyano-2-(2-(1-(4-(3-bromo)phenylacetamido)cyclohexyl)-ethyl)-1,2,3,4-tetrahydroisoquinoline] | 3.16 to 12.6
N#Cc1ccc2c(c1)CCN(CC[C@H]1CC[C@H](NC(=O)COc3ccccc3)CC1)C2 [Example 23, trans-6-Cyano-2-(2-(1-(4-phenoxyacetamido)cyclohexyl)ethyl)-1,2,3,4-tetrahydroisoquinoline] | 3.16 to 12.6
N#Cc1ccc2c(c1)CCN(CC[C@H]1CC[C@H](NC(=O)CCCc3ccccc3)CC1)C2 [Example 24, trans-6-Cyano-2-(2-(1-(4-(4-phenyl)butyramido)cyclohexyl)ethyl)-1,2,3,4-tetrahydroisoquinoline] | 3.16 to 12.6
N#Cc1ccc2c(c1)CCN(CC[C@H]1CC[C@H](NC(=O)CCc3ccc(F)cc3)CC1)C2 [Example 25, trans-6-Cyano-2-(2-(1-(4-(3-(4-fluoro)phenyl)propionamido)-cyclohexyl)ethyl)-1,2,3,4-tetrahydroisoquinoline] | 3.16 to 12.6
N#Cc1ccc2c(c1)CCN(CC[C@H]1CC[C@H](NC(=O)Cc3cc4ccccc4s3)CC1)C2 [Example 29, trans-6-Cyano-2-(2-(1-(4-(2-benzothiophenyl)acetamido)-cyclohexyl)ethyl)-1,2,3,4-tetrahydroisoquinoline] | 3.16 to 12.6

The remaining lines, values ahead:

Ki [nM] | SMILES
3.16 to 12.6 | N#Cc1ccc2c(c1)CCN(CC[C@H]1CC[C@H](NC(=O)Cc3ccccc3)CC1)C2 [Example 1, trans-6-Cyano-2-(2-(1-(4-phenylacetamido)cyclohexyl)ethyl)-1,2,3,4-tetrahydroisoquinoline]
3.16 to 12.6 | N#Cc1ccc2c(c1)CCN(CC[C@H]1CC[C@H](NC(=O)Cc3cccc(F)c3)CC1)C2 [Example 4, trans-6-Cyano-2-(2-(1-(4-(3-fluorophenyl)acetamido)cyclohexyl)ethyl)-1,2,3,4-tetrahydroisoquinoline]
3.16 to 12.6 | N#Cc1ccc(CC(=O)N[C@H]2CC[C@H](CCN3CCc4cc(C#N)ccc4C3)CC2)cc1 [Example 7, trans-6-Cyano-2-(2-(1-(4-(4-cyanophenyl)acetamido)cyclohexyl)ethyl)-1,2,3,4-tetrahydroisoquinoline]
3.16 to 12.6 | N#Cc1ccc2c(c1)CCN(CC[C@H]1CC[C@H](NC(=O)Cc3cccs3)CC1)C2 [Example 10, trans-6-Cyano-2-(2-(1-(4-(2-thienyl)acetamido)cyclohexyl)ethyl)-1,2,3,4-tetrahydroisoquinoline]
3.16 to 12.6 | N#Cc1ccc2c(c1)CCN(CC[C@H]1CC[C@H](NC(=O)Cc3cc(F)ccc3F)CC1)C2 [Example 13, trans-6-Cyano-2-(2-(1-(4-(2,5-difluoro)phenylacetamido)cyclohexyl)-ethyl)-1,2,3,4-tetrahydroisoquinoline]
3.16 to 12.6 | N#Cc1ccc2c(c1)CCN(CC[C@H]1CC[C@H](NC(=O)Cc3ccc(F)c(F)c3)CC1)C2 [Example 14, trans-6-Cyano-2-(2-(1-(4-(3,4-difluoro)phenylacetamido)cyclohexyl)-ethyl)-1,2,3,4-tetrahydroisoquinoline]
3.16 to 12.6 | N#Cc1ccc2c(c1)CCN(CC[C@H]1CC[C@H](NC(=O)Cc3ccc(Br)cc3)CC1)C2 [Example 16, trans-6-Cyano-2-(2-(1-(4-(4-bromo)phenylacetamido)cyclohexyl)-ethyl)-1,2,3,4-tetrahydroisoquinoline]
3.16 to 12.6 | N#Cc1ccc2c(c1)CCN(CC[C@H]1CC[C@H](NC(=O)Cc3ccc(I)cc3)CC1)C2 [Example 17, trans-6-Cyano-2-(2-(1-(4-(4-iodo)phenylacetamido)cyclohexyl)ethyl)-1,2,3,4-tetrahydroisoquinoline]
3.16 to 12.6 | N#Cc1ccc2c(c1)CCN(CC[C@H]1CC[C@H](NC(=O)Cc3ccc(F)cc3F)CC1)C2 [Example 19, trans-6-Cyano-2-(2-(1-(4-(2,4-difluoro)phenylacetamido)cyclohexyl)-ethyl)-1,2,3,4-tetrahydroisoquinoline]
3.16 to 12.6 | N#Cc1ccc2c(c1)CCN(CC[C@H]1CC[C@H](NC(=O)Cc3cccc(C(F)(F)F)c3)CC1)C2 [Example 20, trans-6-Cyano-2-(2-(1-(4-(3-trifluoromethyl)phenylacetamido)-cyclohexyl)ethyl)-1,2,3,4-tetrahydroisoquinoline]
3.16 to 12.6 | CC(C)(C)c1ccc(CC(=O)N[C@H]2CC[C@H](CCN3CCc4cc(C#N)ccc4C3)CC2)cc1 [Example 21, trans-6-Cyano-2-(2-(1-(4-(4-t-butyl)phenylacetamido)cyclohexyl)-ethyl)-1,2,3,4-tetrahydroisoquinoline]
3.16 to 12.6 | N#Cc1ccc2c(c1)CCN(CC[C@H]1CC[C@H](NC(=O)Cc3csc4ccccc34)CC1)C2 [Example 22, trans-6-Cyano-2-(2-(1-(4-(3-benzo[b]thienyl)acetarnido)cyclohexyl)-ethyl)-1,2,3,4-tetrahydroisoquinoline]
3.16 to 12.6 | N#Cc1ccc2c(c1)CCN(CC[C@H]1CC[C@H](NC(=O)Cc3ccnc4ccccc34)CC1)C2 [Example 26, trans-6-Cyano-2-(2-(1-(4-(4-quinolyl)acetamido)-cyclohexyl)ethyl)-1,2,3,4-tetrahydroisoquinoline]
3.16 to 12.6 | N#Cc1ccc2c(c1)CCN(CC[C@H]1CC[C@H](NC(=O)Cc3ccc(C(F)(F)F)cc3)CC1)C2 [Example 27, trans-6-Cyano-2-(2-(1-(4-(4-trifluoromethyl)phenylacetamido)-cyclohexyl)ethyl)-1,2,3,4-tetrahydroisoquinoline]
3.16 to 12.6 | N#Cc1ccc2c(c1)CCN(CC[C@H]1CC[C@H](NC(=O)Cc3cc(F)cc(F)c3)CC1)C2 [Example 28, trans-6-Cyano-2-(2-(1-(4-(3,5-difluoro)phenylacetamido)-cyclohexyl)ethyl)-1,2,3,4-tetrahydroisoquinoline]
3.16 to 12.6 | N#Cc1ccc2c(c1)CCN(CC[C@H]1CC[C@H](NC(=O)Cc3ccco3)CC1)C2 [Example 30, trans-6-Cyano-2-(2-(1-(4-(2-furanyl)acetamido)-cyclohexyl)ethyl)-1,2,3,4-tetrahydroisoquinoline]
